For the assay, the target named is T1, human RIP1 kinase domain (2-375) (Homo sapiens, UniProt Q13546).
T1 construct: Purified human RIP1 kinase domain (2-375) (50 nM); made in house; host or cells: baculovirus-infected insect cells
T1 sequence (Q13546 2-375): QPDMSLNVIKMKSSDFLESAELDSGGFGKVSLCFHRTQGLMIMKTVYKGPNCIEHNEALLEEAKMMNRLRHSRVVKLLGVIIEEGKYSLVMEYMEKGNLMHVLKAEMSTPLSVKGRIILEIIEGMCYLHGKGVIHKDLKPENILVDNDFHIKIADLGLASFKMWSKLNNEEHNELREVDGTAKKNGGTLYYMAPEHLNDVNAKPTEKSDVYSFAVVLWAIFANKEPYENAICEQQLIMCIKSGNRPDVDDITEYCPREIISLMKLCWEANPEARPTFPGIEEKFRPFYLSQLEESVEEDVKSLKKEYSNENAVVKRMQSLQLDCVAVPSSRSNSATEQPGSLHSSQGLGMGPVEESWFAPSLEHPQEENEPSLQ
The assay is described as follows: RIP1 kinase inhibition biochemical assay (Transcreener ADP, fluorescence polarization). The note with it: Ki app (Morrison tight-binding fit); 50 nM enzyme, 50 uM ATP, 2 hours incubation. The method, then: RIP1 Kinase Inhibition Assays (Biochemical Assay)
The compounds of the present invention were tested for their capacity to inhibit RIP1K activity as described below.
The ability of the receptor interacting protein kinase (RIPK1) to catalyze the hydrolysis of adenosine-5′-triphosphate (ATP) is monitored using the Transcreener ADP (adenosine-5′-diphosphate) assay (BellBrook Labs). Purified human RIP1 kinase domain (2-375) (50 nM) derived from a baculovirus-infected insect cell expression system is incubated with test compounds for 2 hours in 50 mM Hepes buffer (pH 7.5) containing 30 mM MgCl2, 1 mM dithiothreitol, 50 uM ATP, 0.002% Brij-35, and 0.5% dimethyl sulfoxide (DMSO). Reactions are quenched by the addition of 1× Bell Brooks Stop buffer B (20 mM Hepes (ph7.5), 40 mM ethylenediaminetetraacetic acid and 0.02% Brij-35) containing an additional 12 mM EDTA and 55 ug/mL ADP2 antibody and 4 nM ADP-AlexaFluor® 633 tracer. The tracer bound to the antibody is displaced by the ADP generated during the RIP1K reaction, which causes a decrease in fluorescence polarization that is measured by laser excitation at 633 nm with a FP microplate reader M1000. Fractional activity was plotted against test article concentration. Using Genedata Screener software (Genedata; Basel, Switzerland), the data were fit to the tight-binding apparent inhibition constant (Ki^app) Morrison equation [Williams, J. W. and Morrison, J. F. (1979) The kinetics of reversible tight-binding inhibition. Methods Enzymol 63: 437-67]. The following equation was used to calculate fractional activity and Ki^app:
[formula] where [E]T and [I]T are the total concentrations of active enzyme and test article, respectively.
Exemplary compounds of the present invention are provided in Table 1 along with their physiochemical characterization and in vitro RIP1 kinase inhibitory activity data. “Method” in the first column of each table refers to the synthetic method(s) used to prepare each compound as shown in the Examples above. In certain examples, chiral column retention times (min) are provided for certain stereoisomers. Unless otherwise specified, the stereochemistry shown in each structure represents relative configuration of a single stereoisomer, and absolute configuration (i.e., “R” and/or “S”) is arbitrarily assigned. In some embodiments, where the Method is described to include the separation of stereoisomers, a single stereoisomer of a compound of Table 1 is provided.

Structures are written as SMILES.

As for `Cc1c(C#N)cnn1-c1nc2n(n1)[C@H](c1ccccc1)C[C@@H]2F` (single isomer, unassigned) [Example 93], the Ki amounted to 5 nM.
With `C[C@H]1C[C@@H]1c1nc2n(n1)[C@H](c1ccccc1)C[C@@H]2F` (single isomer, unassigned) [Example 95] the figure was 39 nM; with `C[C@@H]1C[C@H]1c1nc2n(n1)[C@H](c1ccccc1)C[C@@H]2F` (single isomer, unassigned) [Example 96], 63 nM; with `C=C(CC)c1nc2n(n1)[C@H](c1ccccc1)C[C@@H]2F` (single isomer, unassigned) [Example 97], 200 nM.
The result for `Fc1ccccc1[C@@H]1CCc2nc(CC3CC3)nn21` (single isomer, unassigned) [Example 98] reads 190 nM; that for `F[C@H]1C[C@@H](c2ccccc2)n2nc(-c3cnoc3)nc21` (single isomer, unassigned) [Example 99], 140 nM.
Regarding `N#CC1CN(c2nc3n(n2)[C@H](c2ccccc2)C[C@@H]3F)C1` (single isomer, unassigned) [Example 100], the Ki is 250 nM.
`Fc1ccccc1[C@@H]1C[C@H](F)c2nc(C(F)(F)C3CC3)nn21` (single isomer, unassigned) [Example 104] displayed a Ki of 4 nM.
The result for `CC1([C@@H](O)c2nc3n(n2)[C@H](c2ccccc2)C[C@@H]3F)CC1` (single isomer, unassigned) [Example 105] reads 350 nM; that for `F[C@H]1C[C@@H](c2ccccc2)n2nc([C@H](F)C3CC3)nc21` (single isomer, unassigned) [Example 107], 3.5 nM; that for `F[C@H](c1nc2n(n1)[C@H](c1ccccc1)C[C@@H]2F)C1CC1` (single isomer, unassigned) [Example 109], 12 nM.
On to `[2H][C@](F)(c1nc2n(n1)[C@H](c1ccccc1)C[C@@H]2F)C1CC1` (single isomer, unassigned) [Example 110], for which the Ki amounted to 3.1 nM.
Regarding `[2H][C@@](F)(c1nc2n(n1)[C@H](c1ccccc1)C[C@@H]2F)C1CC1` (single isomer, unassigned) [Example 111], the Ki was 4.9 nM.
In turn, `O[C@@H](c1cc2n(n1)[C@@H](c1ccccc1)C[C@H]2F)C1CC1` (single isomer, unassigned) [Example 114] had a Ki of 100 nM.
`O[C@H](c1cc2n(n1)[C@@H](c1ccccc1)C[C@H]2F)C1CC1` (single isomer, unassigned) [Example 115]: the Ki is 81 nM.
For the molecule `[2H]C([2H])(c1nc2n(n1)[C@H](c1ccccc1)C[C@@H]2F)C1CC1` (single isomer, unassigned) [Example 116], the Ki worked out at 7.3 nM.
`FC(F)c1nc2n(n1)[C@@H](c1ccccc1)C[C@H]2F` (single isomer, unassigned) [Example 118] registered a Ki of 180 nM.
Consider `F[C@H]1C[C@@H](c2ccccc2)n2nc(CC3CCC3)nc21` (stereo in doubt) [Example 94, (5S,7S)-2-(cyclobutylmethyl)-7-fluoro-5-phenyl-6,7-dihydro-5H-pyrrolo[1,2-b][1,2,4]triazole], for which the Ki came to 16 nM.
Turning to `CCC(O)c1nc2n(n1)[C@H](c1ccccc1)C[C@@H]2F` (stereo partly drawn) [Example 1], the Ki came to 406 nM.
For `CCC(F)c1nc2n(n1)C(c1ccccc1)CC2F` (stereo not drawn) [Example 3, Cis-7-fluor-2-(1-fluoropropyl)-5-phenyl-6,7-dihydro-5H-pyrrolo[1,2-b][1,2,4]triazole], the Ki was found to be 51 nM.
As for `OC(c1nc2n(n1)C(c1ccccc1)CC2F)C(F)(F)F` [Example 4, cis-(5S,7S)-2,2,2-trifluoro-1-(7-fluoro-5-phenyl-6,7-dihydro-5H-pyrrolo[1,2-b][1,2,4]triazol-2-yl)ethanol], the Ki was found to be 470 nM.
`CCC(C)(F)c1nc2n(n1)C(c1ccccc1)CC2F` [Example 6, Cis-(5S,7S)-2-(1-fluoro-1-methyl-propyl)-7-fluoro-5-phenyl-6,7-dihydro-5H-pyrrolo[1,2-b][1,2,4]triazole] came in with a Ki of 69 nM.
The result for `F[C@H]1C[C@@H](c2ccccc2)n2nc(CC3CC3(F)F)nc21` (stereo partly drawn) [Example 20, (5S,7S)-2-[(2,2-difluorocyclopropyl)methyl]-7-fluoro-5-phenyl-6,7-dihydro-5H-pyrrolo[1,2-b][1,2,4]triazole] reads 4 nM; that for `F[C@H]1C[C@@H](c2ccccc2)n2nc(C3CC3(F)F)nc21` (stereo partly drawn) [Example 28, (5S,7S)-2-(2,2-difluorocyclopropyl)-7-fluoro-5-phenyl-6,7-dihydro-5H-pyrrolo[1,2-b][1,2,4]triazole], 70 nM.
The molecule `CC1(C)CC1c1nc2n(n1)[C@H](c1ccccc1)C[C@@H]2F` (stereo partly drawn) [Example 30, (5S,7S)-2-(2,2-dimethylcyclopropyl)-7-fluoro-5-phenyl-6,7-dihydro-H-pyrrolo[1,2-b][1,2,4]triazole] returned a Ki of 81 nM.
The result for `F[C@H]1C[C@@H](c2ccccc2)n2nc(C3CC3C(F)(F)F)nc21` (stereo partly drawn) [Example 33, (5S,7S)-7-fluoro-5-phenyl-2-(2-(trifluoromethyl)cyclopropyl)-6,7-dihydro-5H-pyrrolo[1,2-b][1,2,4]triazole] reads 34 nM; that for `CCc1nc2n(n1)[C@H](c1ccccc1)C[C@@H]2F` [Example 36, (5S,7S)-2-ethyl-7-fluoro-5-phenyl-6,7-dihydro-5H-pyrrolo[1,2-b][1,2,4]triazole], 49 nM; that for `CC(C)OCc1nc2n(n1)[C@H](c1ccccc1)C[C@@H]2F` [Example 37, (5S,7S)-7-fluoro-2-(isopropoxymethyl)-5-phenyl-6,7-dihydro-5H-pyrrolo[1,2-b][1,2,4]triazole], 3000 nM.
For `O=Cc1cnn(-c2nc3n(n2)[C@H](c2ccccc2)C[C@@H]3F)c1` [Example 40, 1-[(5S,7S)-7-fluoro-5-phenyl-6,7-dihydro-5H-pyrrolo[1,2-b][1,2,4]triazol-2-yl]pyrazole-4-carbaldehyde], the Ki turned out to be 52 nM.
As for `F[C@H]1C[C@@H](c2ccccc2)n2nc(C(F)(F)C34CC(C3)C4)nc21` [Example 42, (5S,7S)-2-[1-bicyclo[1.1.1]pentanyl(difluoro)methyl]-7-fluoro-5-phenyl-6,7-dihydro-5H-pyrrolo[1,2-b][1,2,4]triazole], the Ki is 6 nM.
Molecule `F[C@H]1C[C@@H](c2ccccc2)n2nc(C#CC3CC3)nc21` [Example 43, (5S,7S)-2-(2-cyclopropylethynyl)-7-fluoro-5-phenyl-6,7-dihydro-5H-pyrrolo[1,2-b][1,2,4]triazole] came in with a Ki of 450 nM.
As to `CC#Cc1nc2n(n1)[C@H](c1ccccc1)C[C@@H]2F` [Example 44, (5S,7S)-7-fluoro-5-phenyl-2-prop-1-ynyl-6,7-dihydro-5H-pyrrolo[1,2-b][1,2,4]triazole], the Ki worked out at 890 nM.
With `N#CC(F)c1nc2n(n1)[C@H](c1ccccc1)C[C@@H]2F` (stereo partly drawn) [Example 48, 2-fluoro-2-[(5S,7S)-7-fluoro-5-phenyl-6,7-dihydro-5H-pyrrolo[1,2-b][1,2,4]triazol-2-yl]acetonitrile] the figure was 910 nM.
As to `F[C@H]1C[C@@H](c2ccccc2)n2nc(-n3cc(Cl)cn3)nc21` [Example 60, (5S,7S)-2-(4-chloropyrazol-1-yl)-7-fluoro-phenyl-6,7-dihydro-5H-pyrrolo[1,2-b][1,2,4]triazole], the Ki came to 4.5 nM.
The result for `[2H]C(c1nc2n(n1)[C@H](c1ccccc1)C[C@@H]2F)C1CC1` (stereo partly drawn) [Example 101, (5S,7S)-2-[cyclopropyl(deuterio)methyl]-7-fluoro-5-phenyl-6,7-dihydro-5H-pyrrolo[1,2-b][1,2,4]triazole] reads 9 nM; that for `OC(c1nc2n(n1)[C@H](c1ccccc1)C[C@@H]2F)[C@H]1C[C@@H]1F` (stereo partly drawn) [Example 106, [(1R,2S)-2-fluorocyclopropyl]-[(5S,7S)-7-fluoro-5-phenyl-6,7-dihydro-5H-pyrrolo[1,2-b][1,2,4]triazol-2-yl]methanol], 110 nM.

The values are drawn from US11673892B2, “Bicyclic compounds for use as RIP1 kinase inhibitors” (Genentech, Inc., priority 2017, dated 2023).
